Values joined by “and” are separate entries in the source; they are usually repeats but may differ in a detail not shown here. Identical values can stand only once. Toxic doses and inconclusive results are not listed. No stated cut-off is given here; in the data, active means T/C of 150% or more; inactive means T/C below 125%.
Tested on: L1210 leukemia ip in BDF1 mice, survival T/C
Test: NCI In Vivo Anticancer Drug Screen. Data for tumor model L1210 Leukemia (intraperitoneal) in B6D2F1 (BDF1) mice
Conditions: endpoint: mean survival time, higher = longer survival
Method in brief: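 Each compound was tested against a transplantable tumor grown in mice. The endpoint was survival, with treated animals benchmarked against vehicle controls as a simple ratio.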

[1] = dose: 100.0 mg/kg/injection, schedule: Q04DX002 (ip), vehicle: Klucel (hydroxypropylcellulose) (HPC)
[2] = dose: 200.0 mg/kg/injection, schedule: Q04DX002 (ip), vehicle: Klucel (hydroxypropylcellulose) (HPC)
[3] = dose: 400.0 mg/kg/injection, schedule: Q04DX002 (ip), vehicle: Klucel (hydroxypropylcellulose) (HPC)
[4] = dose: 50.0 mg/kg/injection, schedule: Q01DX009 (ip), vehicle: Klucel (hydroxypropylcellulose) (HPC)
[5] = dose: 100.0 mg/kg/injection, schedule: Q04DX003 (ip), vehicle: Klucel (hydroxypropylcellulose) (HPC)
[6] = dose: 5.0 mg/kg/injection, schedule: Q01DX001 (ip), vehicle: saline
[7] = dose: 100.0 mg/kg/injection, schedule: Q01DX009 (ip), vehicle: Klucel (hydroxypropylcellulose) (HPC)
[8] = dose: 200.0 mg/kg/injection, schedule: Q01DX009 (ip), vehicle: Klucel (hydroxypropylcellulose) (HPC)
[9] = dose: 100.0 mg/kg/injection, schedule: Q01DX001 (ip), vehicle: carboxymethylcellulose (CMC)
[10] = dose: 200.0 mg/kg/injection, schedule: Q01DX001 (ip), vehicle: carboxymethylcellulose (CMC)
[11] = dose: 200.0 mg/kg/injection, schedule: Q04DX003 (ip), vehicle: Klucel (hydroxypropylcellulose) (HPC)
[12] = dose: 400.0 mg/kg/injection, schedule: Q04DX003 (ip), vehicle: Klucel (hydroxypropylcellulose) (HPC)

Measured: T/C

CC(N)CN(C)C (configuration not stated)
inactive: dose: 100.0 mg/kg/injection, schedule: Q01DX009 (ip), vehicle: saline 98 % of control | dose: 100.0 mg/kg/injection, schedule: Q04DX003 (ip), vehicle: saline 99 % of control | dose: 200.0 mg/kg/injection, schedule: Q01DX009 (ip), vehicle: saline 106 % of control | dose: 200.0 mg/kg/injection, schedule: Q04DX003 (ip), vehicle: saline 100 % of control | dose: 400.0 mg/kg/injection, schedule: Q04DX003 (ip), vehicle: saline 96 % of control

Cc1cc(OC(=O)Nc2ccc(Cl)cc2)ccc1Cl
inactive: dose: 100.0 mg/kg/injection, schedule: Q01DX001 (ip), vehicle: other 103 % of control | dose: 100.0 mg/kg/injection, schedule: Q01DX009 (ip), vehicle: other 93 % of control and 100 % of control | [1] 106 % of control | dose: 100.0 mg/kg/injection, schedule: Q04DX002 (ip), vehicle: other 95 % of control and 91 % of control | dose: 100.0 mg/kg/injection, schedule: Q04DX003 (ip), vehicle: other 96 % of control | dose: 200.0 mg/kg/injection, schedule: Q01DX001 (ip), vehicle: other 96 % of control | dose: 200.0 mg/kg/injection, schedule: Q01DX009 (ip), vehicle: other 93 % of control and 95 % of control | [2] 117 % of control | dose: 200.0 mg/kg/injection, schedule: Q04DX002 (ip), vehicle: other 100 % of control and 91 % of control | dose: 200.0 mg/kg/injection, schedule: Q04DX003 (ip), vehicle: other 91 % of control | dose: 400.0 mg/kg/injection, schedule: Q01DX001 (ip), vehicle: other 96 % of control | dose: 400.0 mg/kg/injection, schedule: Q01DX009 (ip), vehicle: other 92 % of control and 86 % of control | [3] 95 % of control | dose: 400.0 mg/kg/injection, schedule: Q04DX002 (ip), vehicle: other 91 % of control and 92 % of control | dose: 400.0 mg/kg/injection, schedule: Q04DX003 (ip), vehicle: other 95 % of control

C=C(C)C(=O)O (tested in a mixture with another compound)
inactive: dose: 100.0 mg/kg/injection, schedule: Q01DX Z (ip), vehicle: saline 105 % of control | dose: 200.0 mg/kg/injection, schedule: Q01DX Z (ip), vehicle: saline 89 % of control

CC(=O)Nc1cc(NC(C)=O)cc(N(CCO)CCO)c1
inactive: dose: 25.0 mg/kg/injection, schedule: Q01DX009 (ip), vehicle: water 97 % of control | dose: 50.0 mg/kg/injection, schedule: Q01DX009 (ip), vehicle: water 100 % of control | dose: 100.0 mg/kg/injection, schedule: Q01DX009 (ip), vehicle: water 106 % of control | dose: 400.0 mg/kg/injection, schedule: Q01DX009 (ip), vehicle: water 106 % of control

O=C(O)c1cccc([N+](=O)[O-])c1
inactive: dose: 50.0 mg/kg/injection, schedule: Q04DX002 (ip), vehicle: Klucel (hydroxypropylcellulose) (HPC) 88 % of control | [1] 94 % of control

CC(C)CCCC(C)C1CCC2C3CC(O)C45CC4CCC5(C)C3CCC12C (configuration not stated)
inactive: [2] 89 % of control | [3] 92 % of control

O=C(CCN1CC1)OCCc1ccccc1
inactive: dose: 20.0 mg/kg/injection, schedule: Q04DX003 (ip), vehicle: Klucel (hydroxypropylcellulose) (HPC) 98 % of control | dose: 25.0 mg/kg/injection, schedule: Q01DX009 (ip), vehicle: Klucel (hydroxypropylcellulose) (HPC) 111 % of control | dose: 40.0 mg/kg/injection, schedule: Q04DX003 (ip), vehicle: Klucel (hydroxypropylcellulose) (HPC) 95 % of control | [4] 97 % of control | dose: 80.0 mg/kg/injection, schedule: Q04DX003 (ip), vehicle: Klucel (hydroxypropylcellulose) (HPC) 101 % of control | [5] 98 % of control

CCCC[P+](CCCC)(CCCC)CCCC
inactive: [6] 102 % of control | dose: 6.25 mg/kg/injection, schedule: Q04DX002 (ip), vehicle: Klucel (hydroxypropylcellulose) (HPC) 89 % of control | dose: 10.0 mg/kg/injection, schedule: Q01DX001 (ip), vehicle: saline 123 % of control | dose: 12.5 mg/kg/injection, schedule: Q04DX002 (ip), vehicle: Klucel (hydroxypropylcellulose) (HPC) 103 % of control | dose: 20.0 mg/kg/injection, schedule: Q01DX001 (ip), vehicle: saline 104 % of control | dose: 25.0 mg/kg/injection, schedule: Q04DX002 (ip), vehicle: Klucel (hydroxypropylcellulose) (HPC) 95 % of control and 104 % of control

Cc1ccc(NC(=O)C(F)(F)F)cc1F
inactive: [4] 93 % of control | [7] 104 % of control | [8] 97 % of control

Cc1c(C(=O)O)sc2ccc([N+](=O)[O-])cc12
inactive: [9] 97 % of control | [10] 95 % of control | dose: 400.0 mg/kg/injection, schedule: Q01DX001 (ip), vehicle: carboxymethylcellulose (CMC) 92 % of control

NC(=S)NN=C1CCCCCCC1
inactive: dose: 8.4 mg/kg/injection, schedule: Q01DX Z (ip), vehicle: methylcellulose (MC) 98 % of control | dose: 23.0 mg/kg/injection, schedule: Q01DX Z (ip), vehicle: methylcellulose (MC) 101 % of control | dose: 39.0 mg/kg/injection, schedule: Q01DX Z (ip), vehicle: methylcellulose (MC) 111 % of control

CN(C)c1ccc(CNc2cccc(Cl)c2Cl)cc1
inactive: [5] 94 % of control | [11] 96 % of control | [12] 97 % of control

OC1CCN(C2(c3ccccc3)CCCCC2)CC1
inactive: [1] 104 % of control | [2] 86 % of control

CCCCCCCCCCCCCCOc1ccc2ccccc2c1
inactive: [5] 94 % of control | [11] 96 % of control | [12] 91 % of control

O=C1OC(c2ccccc2)=N/C1=C\c1ccc2c(c1)OCO2
inactive: [9] 95 % of control | [10] 98 % of control

O=C(O)c1ccc(B(O)O)cc1
inactive: [5] 103 % of control | [11] 103 % of control | [12] 93 % of control

CN(C)N=Nc1ccc(C(=O)N/N=C/c2ccc(Br)cc2)cc1
inactive: [5] 94 % of control | [11] 104 % of control | [12] 95 % of control

CCCCS(=O)/C=C\S(=O)CCCC (configuration not stated)
inactive: dose: 100.0 mg/kg/injection, schedule: Q04DX002 (ip), vehicle: saline 117 % of control | dose: 200.0 mg/kg/injection, schedule: Q04DX002 (ip), vehicle: saline 106 % of control

O=C1NC(=O)C2C(c3ccccc3)=NOC2N1 (configuration not stated)
inactive: [7] 103 % of control | [5] 97 % of control | [8] 103 % of control | [11] 90 % of control | dose: 400.0 mg/kg/injection, schedule: Q01DX009 (ip), vehicle: Klucel (hydroxypropylcellulose) (HPC) 98 % of control | [12] 97 % of control

O=C1c2ccccc2C(=O)N1Nc1ccccc1
inactive: dose: 5.0 mg/kg/injection, schedule: Q01DX001 (ip), vehicle: carboxymethylcellulose (CMC) 96 % of control | dose: 10.0 mg/kg/injection, schedule: Q01DX001 (ip), vehicle: carboxymethylcellulose (CMC) 113 % of control | dose: 20.0 mg/kg/injection, schedule: Q01DX001 (ip), vehicle: carboxymethylcellulose (CMC) 105 % of control | dose: 40.0 mg/kg/injection, schedule: Q01DX001 (ip), vehicle: carboxymethylcellulose (CMC) 111 % of control | dose: 80.0 mg/kg/injection, schedule: Q01DX001 (ip), vehicle: carboxymethylcellulose (CMC) 94 % of control | [1] 110 % of control | [2] 97 % of control | [3] 103 % of control

O=C1c2ccccc2C(=O)N1CNc1ccccn1
inactive: dose: 100.0 mg/kg/injection, schedule: Q04DX002 (ip), vehicle: saline with Tween-80 96 % of control | dose: 200.0 mg/kg/injection, schedule: Q04DX002 (ip), vehicle: saline with Tween-80 93 % of control | dose: 400.0 mg/kg/injection, schedule: Q04DX002 (ip), vehicle: saline with Tween-80 100 % of control

c1ccc(C[n+]2ccc(-c3cc[n+](Cc4ccccc4)cc3)cc2)cc1
inactive: [6] 109 % of control

CCSC1C(OC(C)=O)C(C(COC(C)=O)OC(C)=O)OC1n1cc(C)c(=O)[nH]c1=O (configuration not stated)
inactive: dose: 100.0 mg/kg/injection, schedule: Q01DX005 (ip), vehicle: saline 98 % of control | dose: 200.0 mg/kg/injection, schedule: Q01DX005 (ip), vehicle: saline 100 % of control

Cc1ccc(S(=O)(=O)c2ccc(C)c([N+](=O)[O-])c2)cc1[N+](=O)[O-]
inactive: dose: 100.0 mg/kg/injection, schedule: Q01DX001 (ip), vehicle: Klucel (hydroxypropylcellulose) (HPC) 104 % of control | dose: 200.0 mg/kg/injection, schedule: Q01DX001 (ip), vehicle: Klucel (hydroxypropylcellulose) (HPC) 118 % of control | dose: 400.0 mg/kg/injection, schedule: Q01DX001 (ip), vehicle: Klucel (hydroxypropylcellulose) (HPC) 96 % of control
